In EPA's ToxRefDB 2:

What was measured:
rat [1] = conditions: Prenatal developmental toxicity study, other, Oral, Gavage/Intubation, dose end: 16 GD
rat [2] = conditions: Combined chronic toxicity/carcinogenicity, other, Oral, Feed, dose end: 24 month, group: systemic
mouse [3] = conditions: Carcinogenicity; cd1; Oral; Feed; dose end: 18 month; group: systemic; systemic / pathology microscopic / liver / vacuolization + systemic / pathology microscopic / seminal vesicle / distended + systemic / …
rabbit = conditions: Prenatal developmental toxicity study, new zealand white, Oral, Gavage/Intubation, dose end: 19 GD
dog = conditions: Chronic toxicity, beagle, Oral, Capsule, dose end: 52 week, group: systemic
rat [4] = conditions: Multigenerational reproductive toxicity study, sprague dawley, Oral, Feed, dose end: 2 generation
rat [5] = conditions: Combined chronic toxicity/carcinogenicity, sprague dawley, Oral, Feed, dose end: 24 month, group: systemic
mouse [6] = conditions: Carcinogenicity, cd1, Oral, Feed, dose end: 18 month, group: systemic
rat [7] = conditions: Subchronic oral toxicity in rodents, sprague dawley, Feed, dose end: 90 day, group: systemic
[8] = group: developmental, developmental / developmental malformation / bone / short + developmental / developmental malformation / bone / supernumerary
[9] = group: developmental, developmental / developmental malformation / bone / short + developmental / developmental malformation / bone / supernumerary + …
[10] = group: maternal, systemic / in life observation / body weight / body weight gain + systemic / in life observation / food consumption / food consumption
[11] = group: maternal, systemic / in life observation / body weight / body weight gain + systemic / in life observation / food consumption / food consumption + …
[12] = systemic / organ weight / brain / absolute + systemic / organ weight / brain / relative to body weight
[13] = group: developmental, developmental / developmental malformation / other / other
[14] = group: maternal, reproductive / reproductive performance / postimplantation loss / postimplantation loss + reproductive / reproductive performance / …
[15] = systemic / clinical chemistry / cholesterol / cholesterol + systemic / clinical chemistry / bilirubin / total bilirubin + systemic / …
[16] = systemic / hematology / platelet / platelet + systemic / organ weight / spleen / absolute + systemic / organ weight / spleen / relative to …
[17] = group: offspring, systemic / in life observation / body weight / offspring (pup) weight
[18] = group: parental, systemic / pathology gross / spleen / discolored + systemic / pathology microscopic / spleen / congestion + systemic / pathology microscopic…
[19] = group: reproductive, reproductive / offspring survival early / litter size / litter size
[20] = systemic / hematology / erythrocyte (rbc) count differential / erythrocyte (rbc) + systemic / hematology / hematocrit (hct) / hematocrit (…
[21] = systemic / hematology / anemia / anemia - nos + systemic / hematology / erythrocyte (rbc) count differential / erythrocyte (rbc) + systemic…
[22] = systemic / in life observation / clinical signs / fur (altered appearance) + systemic / pathology gross / penis / prolapse
[23] = systemic / in life observation / clinical signs / fur (altered appearance) + systemic / in life observation / clinical signs / urine, …

SMILES: CCC(C)n1c(=O)[nH]c(C)c(Br)c1=O (configuration not stated) [Bromacil]
- LEL (rat [1]; [8]): 200 mg/kg/day
- LOAEL (rat [1]; [8]): 200 mg/kg/day
- NEL (rat [1]; [9]): 75 mg/kg/day
- NOAEL (rat [1]; [9]): 75 mg/kg/day
- LEL (rat [1]; [10]): 75 mg/kg/day
- LOAEL (rat [1]; [10]): 75 mg/kg/day
- NEL (rat [1]; [11]): 20 mg/kg/day
- NOAEL (rat [1]; [11]): 20 mg/kg/day
- LOAEL (rat [2]; systemic / in life observation / body weight / body weight gain): 9.82 mg/kg/day
- NOAEL (rat [2]; systemic / in life observation / body weight / body weight gain + systemic / in life observation / body weight / body weight + systemic / …): 1.96 mg/kg/day
- LEL (rat [2]; [12]): 1.96 mg/kg/day
- NEL (rat [2]; [12]): < 1.96 mg/kg/day
- LEL (mouse [3]): 36 mg/kg/day
- LOAEL (mouse [3]): 36 mg/kg/day
- NEL (mouse [3]): < 36 mg/kg/day
- NOAEL (mouse [3]): < 36 mg/kg/day
- LEL (rabbit; [13]): 500 mg/kg/day
- LOAEL (rabbit; [13]): > 500 mg/kg/day
- NEL (rabbit; [13]): 300 mg/kg/day
- NOAEL (rabbit; [13]): ≥ 500 mg/kg/day
- LEL (rabbit; [14]): 300 mg/kg/day
- LOAEL (rabbit; [14]): 300 mg/kg/day
- NEL (rabbit; [14]): 100 mg/kg/day
- NOAEL (rabbit; [14]): 100 mg/kg/day

SMILES: c1ccc(Nc2ccccc2)cc1 [Diphenylamine]
- LOAEL (dog; [15]): 50 mg/kg/day
- NOAEL (dog; [15]): 10 mg/kg/day
- LEL (dog; [16]): 10 mg/kg/day
- NEL (dog; [16]): < 10 mg/kg/day
- LEL (rat [4]; [17]): 115 mg/kg/day
- LOAEL (rat [4]; [17]): 115 mg/kg/day
- NEL (rat [4]; [17]): 40 mg/kg/day
- NOAEL (rat [4]; [17]): 40 mg/kg/day
- LEL (rat [4]; [18]): 40 mg/kg/day
- LOAEL (rat [4]; [18]): 40 mg/kg/day
- NEL (rat [4]; [18]): < 40 mg/kg/day
- NOAEL (rat [4]; [18]): < 40 mg/kg/day
- LEL (rat [4]; [19]): 399 mg/kg/day
- LOAEL (rat [4]; [19]): 399 mg/kg/day
- NEL (rat [4]; [19]): 115 mg/kg/day
- NOAEL (rat [4]; [19]): 115 mg/kg/day
- LOAEL (rat [5]; [20]): 138 mg/kg/day
- NEL (rat [5]; [20]): 7.5 mg/kg/day
- NOAEL (rat [5]; [20]): 24.9 mg/kg/day
- LEL (rat [5]; systemic / hematology / erythrocyte (rbc) count differential / erythrocyte (rbc) + systemic / pathology gross / spleen / discolored + …): 24.9 mg/kg/day
- LOAEL (mouse [6]; [21]): 368 mg/kg/day
- NOAEL (mouse [6]; [21]): 73.2 mg/kg/day
- LEL (mouse [6]; [22]): 73.2 mg/kg/day
- NEL (mouse [6]; [22]): < 73.2 mg/kg/day
- LOAEL (rat [7]; [23]): 547 mg/kg/day
- NEL (rat [7]; [23]): 9.6 mg/kg/day
- NOAEL (rat [7]; [23]): 95.8 mg/kg/day
- LEL (rat [7]; systemic / pathology microscopic / spleen / hematopoietic cell proliferation erythrocytic): 95.8 mg/kg/day
